Here are results for five compounds from patent US4801588A, “Tetracyclic indole derivatives for treating hypertension” (Farmitalia Carlo Erba S.p.A., priority 1986, dated 1989).

In series [1] the test system is mean blood pressure. The series can be described thus: Antihypertensive activity: mean blood pressure (MBP) after oral administration in SHR rats, intraarterial measurement. As to conditions: single dose, limits P = 0.05, calculated from dose-response regression line; for ED25 and limits (dose lowering mean blood pressure of 25 mmHg): p.o. Type of series: in vivo, rat (SHR). The method, then: Intrarterial measurements of mean blood pressure (MBP) were performed through catheters (PE 50, Clay Adams) implanted in the rat (SHR) right carotid artery under alothane anesthesia. Twenty four hours after surgery, the animals were placed in Ballman cages and the arterial cannula was connected via a pressure transducer to a Beckman blood pressure recorder for continuous monitoring of mean blood pressure.
MBP was recorded before the oral administration (basal values) and 15-30-60-120-240 minutes till 24 hours after treatment. Groups of 7-8 rats were orally treated with a single dose of the test compound or vehicle, methocel 0.5% w/v (0.2 ml/100 g b.w.). The ED25 was calculated for each compound from the dose-response regression line.
As reference standard drug, captopril was also tested.

Series [2] relates to male mice. The series can be described thus: Orientative toxicity after oral treatment in male mice, seven days observation. Type of series: in vivo. Particulars: p.o., observed for seven days, 10080 min. The text has this:
(§1) Three male mice for each group were orally treated with drugs at different dose levels for the determination of orientative toxicity.

Assay in series [3]: as above
It counts as in vivo. As to conditions: mouse, in vivo, po, observed for seven days.
Description: as §1

What is called LD50 is the dose at which mortality reaches 50%. Low values mean a more toxic substance, high ones a less toxic substance.

Take “1-[[5-(10→9)abeo-9,10-didehydro-6-methylergolin-8β-yl]methyl]- 2,4-(1H,3H)-pyrimidinedione [FCE 24379]”: the “ED25 and limits (dose lowering mean blood pressure of 25 mmHg)” value in series [1] is listed as 1.229 (0.661-1.845) mg.kg^-1. The LD50 in series [2] is more than 800 mg/kg.

For the compound “1-[[5-(10→9)abeo-9,10-didehydro-6-methylergolin-8β-yl]methyl]- 2,4-(1H,3H)-pyrimidinedione-N6 -oxide [FCE 24778]”, in series [1], the “ED25 and limits (dose lowering mean blood pressure of 25 mmHg)” value is on record as 0.402 (0.297-0.511) mg.kg^-1. Besides, in series [2], the LD50 is more than 800 mg/kg.

Regarding `C[C@H](CS)C(=O)N1CCC[C@H]1C(=O)O` [Captopril, captopril, reference compound], the ED (25 mmHg) in series [1] (Rattus norvegicus, po, read-out: ED25 and limits (dose lowering mean blood pressure of 25 mmHg)) is 13.7 mg/kg. In series [3], the 50% lethal dose (LD50) at 168 h is more than 800 mg/kg.

Take `CN1C[C@H](CN2CC(=O)NC2=O)C2=Cc3cccc4[nH]cc(c34)C[C@H]21` [FCE 24378, 1-[[5(10→9)abeo-9,10-didehydro-6-methylergolin-8β-yl]methyl]-2,4-imidazolidinedione]: in series [1], the “ED25 and limits (dose lowering mean blood pressure of 25 mmHg)” value was 2.051 (1.180-2.971) mg.kg^-1. This compound also displayed an LD50 in series [2] of more than 800 mg/kg.

With `C[N+]1([O-])C[C@H](CN2CC(=O)NC2=O)C2=Cc3cccc4[nH]cc(c34)C[C@H]21` (stereo partly drawn) [FCE 25068, 1-[[5(10→9)abeo-9,10-didehydro-6-methylergolin-8β-yl]methyl]-2,4-imidazolidinedione-N6-oxide], the “ED25 and limits (dose lowering mean blood pressure of 25 mmHg)” value in series [1] is on record as 4.272 (3.256-5.514) mg.kg^-1. In addition, the LD50 in series [2] is more than 800 mg/kg.
